Reference: patent publication US7605155B2, “Substituted pyrazolo[1,5-a]pyrimidines as protein kinase inhibitors” (priority 2002, dated 2009)

Target: CDK2 (either cyclin A or E-dependent) (Homo sapiens, UniProt P24941)
Experiment: biochemical
Text: BACULOVIRUS CONSTRUCTIONS: Cyclins A and E were cloned into pFASTBAC (Invitrogen) by PCR, with the addition of a GluTAG sequence (EYMPME) at the amino-terminal end to allow purification on anti-GluTAG affinity columns. […] CDK2 was also cloned into pFASTBAC by PCR, with the addition of a haemaglutinin epitope tag at the carboxy-terminal end ([…]).
ENZYME PRODUCTION: Recombinant baculoviruses expressing cyclins A, E and CDK2 were infected into SF9 cells at a multiplicity of infection (MOI) of 5, for 48 hrs. Cells were harvested by centrifugation at 1000 RPM for 10 minutes. Cyclin-containing (E or A) pellets were combined with CDK2 containing cell pellets and lysed on ice for 30 minutes in five times the pellet volume of lysis buffer containing 50 mM Tris pH 8.0, 0.5% NP40, 1 mM DTT and protease/phosphatase inhibitors (Roche Diagnostics GmbH, Mannheim, Germany). Mixtures were stirred for 30-60 minutes to promote cyclin-CDK2 complex formation. Mixed lysates were then spun down at 15000 RPM for 10 minutes and the supernatant retained. 5 ml of anti-GluTAG beads (for one liter of SF9 cells) were then used to capture cyclin-CDK2 complexes. Bound beads were washed three times in lysis buffer. Proteins were competitively eluted with lysis buffer containing 100-200 ug/mL of the GluTAG peptide. Eluate was dialyzed overnight in 2 liters of kinase buffer containing 50 mM Tris pH 8.0, 1 mM DTT, 10 mM MgCl2, 100 uM sodium orthovanadate and 20% glycerol. Enzyme was stored in aliquots at −70° C.
IN VITRO KINASE ASSAY: CDK2 kinase assays (either cyclin A or E-dependent) were performed in low protein binding 96-well plates (Corning Inc, Corning, N.Y.). Enzyme was diluted to a final concentration of 50 μg/ml in kinase buffer containing 50 mM Tris pH 8.0, 10 mM MgCl2, 1 mM DTT, and 0.1 mM sodium orthovanadate. The substrate used in these reactions was a biotinylated peptide derived from Histone H1 (from Amersham, UK). The substrate was thawed on ice and diluted to 2 μM in kinase buffer. Compounds were diluted in 10% DMSO to desirable concentrations. For each kinase reaction, 20 μl of the 50 μg/ml enzyme solution (1 μg of enzyme) and 20 μl of the […] substrate solution were mixed, then combined with 10 μl of diluted compound in each well for testing. […] The reaction was allowed to run for 1 hour at room temperature. The reaction was stopped by adding 200 μl of stop buffer containing 0.1% Triton X-100, 1 mM ATP, 5 mM EDTA, and 5 mg/ml streptavidine coated SPA beads (from Amersham, UK) for 15 minutes. The SPA beads were then captured onto a 96-well GF/B filter plate (Packard/Perkin Elmer Life Sciences) using a Filtermate universal harvester (Packard/Perkin Elmer Life Sciences.). Non-specific signals were eliminated by washing the beads twice with 2M NaCl then twice with 2 M NaCl with 1% phosphoric acid. The radioactive signal was then measured using a TopCount 96 well liquid scintillation counter (from Packard/Perkin Elmer Life Sciences).
IC50 DETERMINATION: Dose-response curves were plotted from inhibition data generated, each in duplicate, from 8 point serial dilutions of inhibitory compounds. Concentration of compound was plotted against % kinase activity, calculated by CPM of treated samples divided by CPM of untreated samples. To generate IC50 values, the dose-response curves were then fitted to a standard sigmoidal curve and IC50 values were derived by nonlinear regression analysis. These kinase activities were generated by using cyclin A or cyclin E using the above-described assay.

SMILES | IC50 [nM]
Nc1cc(C2CCCNC2)nc2c(-c3ccc(CO)cc3)cnn12 (stereo not shown) | 1400
Nc1cc(C2CCCNC2)nc2c(-c3cncs3)cnn12 (stereo not shown) | 210
CC(C)Cc1ncc(-c2cnn3c(N)cc(C4CCCNC4)nc23)s1 (stereo not shown) | 1300
Nc1cc(C2CCCNC2)nc2c(-c3ncon3)cnn12 (stereo not shown) | 2500
N#CCc1ccc(-c2cnn3c(N)cc(C4CCCNC4)nc23)cc1 (stereo not shown) | 12000
Nc1cc(C2CCCNC2)nc2c(-c3cscn3)cnn12 (stereo not shown) | 10000
Nc1c(Br)c(C2CCCNC2)nc2c(-c3ccc4c(c3)OCO4)cnn12 (stereo not shown) | 570
N#Cc1ccc(-c2cnn3c(N)c(Br)c(C4CCCNC4)nc23)cc1 (stereo not shown) | 240
Nc1c(Br)c(C2CCCNC2)nc2c(-c3cncs3)cnn12 (stereo not shown) | 96
Nc1c(Br)c(C2CCCNC2)nc2c(-c3cscn3)cnn12 (stereo not shown) | 5800
Cn1cc(-c2cnn3c(N)c(Br)c(N4CC[C@H](N)C4)nc23)cn1 | 1200
Nc1c(Br)c(C2CCCNC2)nc2c(-c3cnccn3)cnn12 (stereo not shown) | 4700
Cn1cc(-c2cnn3c(NC4CCCC4)cc(C4CCCNC4)nc23)cn1 (stereo not shown) | 25000
Cn1cc(-c2cnn3c(NCc4ccccc4)cc(C4CCCNC4)nc23)cn1 (stereo not shown) | 31000
CCNc1c(Br)c(C2CCCNC2)nc2c(-c3cnn(C)c3)cnn12 (stereo not shown) | 5700
Nc1cc(C2CCCNC2)nc2c(-c3cnoc3)cnn12 (stereo not shown) | 790
Nc1cc(C2CCCNC2)nc2c(-c3cnn(CCO)c3)cnn12 (stereo not shown) | 4300
CC(C)n1cc(-c2cnn3c(N)cc(C4CCCNC4)nc23)cn1 (stereo not shown) | 8300
Cn1cc(-c2cnn3c(N)c(I)c(C4CCCNC4)nc23)cn1 (stereo not shown) | 20
N#Cc1ccc(-c2cnn3c(N)cc(C4CCCNC4)nc23)cn1 (stereo not shown) | 2300
N#Cc1ccc(-c2cnn3c(N)c(Br)c(C4CCCNC4)nc23)cn1 (stereo not shown) | 880
Nc1c(Br)c(C2CCCNC2)nc2c(-c3cnoc3)cnn12 (stereo not shown) | 160
Nc1c(Br)c(C2CCCNC2)nc2c(-c3cnn(CCO)c3)cnn12 (stereo not shown) | 200
N#Cc1cncc(-c2cnn3c(N)c(Br)c(C4CCCNC4)nc23)c1 (stereo not shown) | 5800
CCn1cc(-c2cnn3c(N)c(Br)c(C4CCCNC4)nc23)cn1 (stereo not shown) | 410

SMILES | IC50 [nM]
CN(C)C(=O)Cn1cc(-c2cnn3c(N)c(Br)c(C4CCCNC4)nc23)cn1 (stereo not shown) | 1400
Cn1cc(-c2cnn3c(N)c(Br)c(C4CCCN(CCO)C4)nc23)cn1 (stereo not shown) | 1750
N#Cc1cc(-c2cnn3c(N)c(Br)c(C4CCCNC4)nc23)co1 (stereo not shown) | 140
N#Cc1cc(-c2cnn3c(N)c(Cl)c(C4CCCNC4)nc23)co1 (stereo not shown) | 210
Nc1cc(C2CCCNC2)nc2c(-c3coc(C=NO)c3)cnn12 (stereo not shown) | 40
Nc1cc(C2CCCNC2)nc2c(-c3cn[nH]c3)cnn12 (stereo not shown) | 1500
COC(=O)[C@@H]1CC[C@H](c2cc(N)n3ncc(-c4cnn(C)c4)c3n2)CN1 | 14000
Cn1cc(-c2cnn3c(N)c(Br)c(CC4CNCCO4)nc23)cn1 (stereo not shown) | 6100
Cn1cc(-c2cnn3c(N)c(Br)c(CC4CNCCN4)nc23)cn1 (stereo not shown) | 5700
Cn1cc(-c2cnn3c(N)cc(C4(F)CCCNC4)nc23)cn1 (stereo not shown) | 6000
Cn1cc(-c2cnn3c(N)c(Br)c(C4CCCCN4)nc23)cn1 (stereo not shown) | 28000
Cn1cc(-c2cnn3c(N)c(Br)c(C4CNCCNC4)nc23)cn1 | 720
Cn1cc(-c2cnn3c(N)cc([C@H]4CC[C@@H](CO)NC4)nc23)cn1 | 12000
C/C(=N\O)[C@@H]1CC[C@H](c2nc3c(-c4cnn(C)c4)cnn3c(N)c2Br)CN1 | 520
Cn1cc(-c2cnn3c(N)c(Br)c([C@H]4CCC[C@@H](N)C4)nc23)cn1 | 440
Cn1cc(-c2cnn3c(N)cc([C@@H]4CC[C@@H](N)C4)nc23)cn1 | 5600
Cn1cc(-c2cnn3c(N)cc([C@@H]4CC[C@H](N)C4)nc23)cn1 | 3700
Cn1cc(-c2cnn3c(N)c(Br)c([C@@H]4CC[C@@H](N)C4)nc23)cn1 | 120
Cn1cc(-c2cnn3c(N)c(Br)c([C@@H]4CC[C@H](N)C4)nc23)cn1 | 240
CC(N)CCc1nc2c(-c3cnn(C)c3)cnn2c(N)c1Br (stereo not shown) | 1200
CC(C)N1CCNCC(c2nc3c(-c4cnn(C)c4)cnn3c(N)c2Br)C1 (stereo not shown) | 2600
CC(=O)N1CCNCC(c2nc3c(-c4cnn(C)c4)cnn3c(N)c2Br)C1 (stereo not shown) | 2600
Cn1cc(-c2cnn3c(N)c(Br)c(C4CNCCN(S(C)(=O)=O)C4)nc23)cn1 (stereo not shown) | 3100
Cn1cc(-c2cnn3c(N)c(Br)c(CCNCc4ccccc4)nc23)cn1 | 3700
